Measurements from US20240343735A1, “Hydrochloride Salt of Inupadenant, Pharmaceutical Compositions and Methods of Use Thereof” (iTeos Belgium SA, priority 2021, published 2024).
Values belong to the molecule of their own block, whether it stands above or below them.

How the values were obtained:
Type in all cases: physicochemical
[1] = Dynamic vapor sorption (DVS)
Experimental: 10-20 mg of sample was placed into a mesh vapor sorption balance pan and loaded into a DVS Intrinsic or Advantage dynamic vapor sorption balance by Surface Measurement Systems. The sample was subjected to a ramping profile from 40-90% relative humidity (RH) at 10% increments, maintaining the sample at each step until a stable weight had been achieved (dm/dt 0.004%, minimum step length 30 minutes, maximum step length 500 minutes) at 25° C. After completion of the sorption cycle, the sample was dried using the same procedure to 0% RH and then a second sorption cycle back to 40% RH. Two cycles were performed. The weight change during the sorption/desorption cycles were plotted, allowing for the hygroscopic nature of the sample to be determined. XRPD analysis (XRPD Method A) was then carried out on any solid retained.
DVS isotherms were collected using a Surface Measurement Systems Ltd. DVS-1 No Video, equipment #2126. The sample was loaded into balance pan, typically 10-30 mg, and equilibrated at 0% RH. After the material has dried the RH was increased with 10% per step for 1 hour per increment, ending at 95% RH. After completion of the sorption cycle, the sample was dried using the same method. The software used for data collection is DVSWin v3.01 No Video. Data analysis was performed using DVS Standard Analysis Suite v6.3.0 (Standard). […]

[2] = Salt disproportionation study in unbuffered water; details: ambient temperature, 24 hours
[3] = 7-day stability assessment of Form 2 inupadenant hydrochloride
[4] = Dissolution rate assessment in pH 1.2, 0.2 M HCl/KCl buffer; details: for Conc. mg/mL in pH 1.2 HCl/KCl: ca. 37° C.
Experimental: 1000 μL of each sample was drawn from the slurry layer by automated pipette at 15, 30, 60, 120, 240 and 1440 minute timepoints. • These aliquots were spun down through a centrifuge filter, diluted 300 μl:300 μl with the method specified diluent and placed in total recovery vials. The solids were retained for XRPD analysis. • The solubility of the material in the buffer was determined by HPLC analysis (duplicate injections) (Example 1, HPLC Method C) against verified reference solutions of the source material at known concentrations.

[5] = 7-day stability assessment of amorphous inupadenant hydrochloride
Experimental: A 7-day stability assessment of amorphous inupadenant hydrochloride was carried out as follows: (1) 20 mg amorphous inupadenant was added to 3×2 mL glass vials; (2) the samples were then stored under the following conditions—(i) 40° C./75% RH—open vial, (ii) 80° C.—closed vial, and (iii) ambient light—open vial; (3) Solids were stored for 1 week under the above conditions with XRPD analysis (Example 1, XRPD Method A) and HPLC purity analysis (Example 1, HPLC Method A) being carried out post-storage.

[6] = Solubility assessment in solvents; details: 1,4-dioxane, water, tert-butyl alcohol, THF, ethyl acetate, acetone, methanol, DCM; even at 20 mg/mL with gentle heating
Experimental: 0.5-1 mL of solvent was added to each vial and the samples were manually shaken at ambient temperature. […] The solvents assessed in this solubility study were 1,4-dioxane, water, tert-butyl alcohol, THF, ethyl acetate, acetone, methanol, and DCM.

[7] = 7 days, 40° C. + 75% RH, open vial
[8] = 7 days, ambient light, open vial

DVS total mass uptake ([1]; at 95% RH, DVS Method B): 5 wt. %
SMILES: C[S@+]([O-])CCOc1cc(N2CCN(CCn3c(=O)sc4c3nc(N)n3nc(-c5ccco5)nc43)CC2)c(F)cc1F.Cl [Form 1 inupadenant hydrochloride]

solid form (XRPD) after slurrying in water [2]: no changes in the solid form | HPLC (Purity, % area) [3, 7]: 99.64 % area | XRPD Analysis [3, 7]: Form 2 inupadenant | HPLC (Purity, % area) ([3]; 7 days, 80° C., closed vial): 99.66 % area | XRPD Analysis ([3]; 7 days, 80° C., closed vial): Form 2 inupadenant | HPLC (Purity, % area) [3, 8]: 99.66 % area | XRPD Analysis [3, 8]: Form 2 inupadenant | change of solid form (XRPD) after 7-day stability assessment ([3]; all stability conditions): no changes to the solid form | change of solid purity (HPLC) after 7-day stability assessment ([3]; all stability conditions): no changes to solid purity | HPLC (Purity, % area) ([3]; input material): 99.61 % area | XRPD Analysis ([3]; input material): Form 2 inupadenant | solubility in pH 1.2 0.2 M HCl/KCl buffer ([4]; 37° C., overnight): low | Conc. mg/mL in pH 1.2 HCl/KCl ([4]; 15 min): 0.0010 mg/mL | Conc. mg/mL in pH 1.2 HCl/KCl ([4]; 30 min): 0.0013 mg/mL | Conc. mg/mL in pH 1.2 HCl/KCl ([4]; 60 min): 0.0014 mg/mL | Conc. mg/mL in pH 1.2 HCl/KCl ([4]; 120 min): 0.0023 mg/mL | Conc. mg/mL in pH 1.2 HCl/KCl ([4]; 240 min): 0.0029 mg/mL | Conc. mg/mL in pH 1.2 HCl/KCl ([4]; 1440 min): 0.0035 mg/mL | change of solid purity (HPLC) after 7-day stability assessment ([5]; all stability conditions): no changes to solid purity | solubility in solvent systems [6]: insoluble | DVS total mass increase ([1]; at 90% RH, 25° C., DVS Method A): 3.8 wt. %
SMILES: C[S@+]([O-])CCOc1cc(N2CCN(CCn3c(=O)sc4c3nc(N)n3nc(-c5ccco5)nc43)CC2)c(F)cc1F.Cl.O [Form 2 inupadenant hydrochloride]
XRPD of solids recovered from each timepoint ([4]; pH 1.2 HCl/KCl buffer): consistent with Form 2 inupadenant hydrochloride

HPLC (Purity, % area) [5, 7]: 99.64 % area | XRPD Analysis [5, 7]: Form 2 inupadenant | HPLC (Purity, % area) ([5]; 7 days, 80° C., closed vial): 99.66 % area | XRPD Analysis ([5]; 7 days, 80° C., closed vial): Form 2 inupadenant | HPLC (Purity, % area) [5, 8]: 99.66 % area | XRPD Analysis [5, 8]: Form 2 inupadenant | HPLC (Purity, % area) ([5]; input material): 99.61 % area | XRPD Analysis ([5]; input material): Predominantly amorphous
SMILES: C[S@+]([O-])CCOc1cc(N2CCN(CCn3c(=O)sc4c3nc(N)n3nc(-c5ccco5)nc43)CC2)c(F)cc1F.Cl [amorphous inupadenant hydrochloride]
change of solid form (XRPD) after 7-day stability assessment ([5]; all stability conditions): crystallized into Form 2 inupadenant hydrochloride
